In patent US11401278B2, “Macrocyclic indole derivatives” (The Broad Institute, Inc., priority 2017, dated 2022):
Where a name gives a salt, the structure may show the parent alone. Read-outs that look alike come from different tables or passages of the source.

Legend:
[1] = biological target: MCL-1 (Homo sapiens (Human), UniProt Q07820, K194A/K197A/R201A); experiment: Protein-protein interaction assay MCL-1/Noxa BH3 peptide (MCL-1 assay, TR-FRET); assay type: binding; conditions: MBP-MCL-1 / Noxa BH3 peptide, median
Chain of MCL-1 (Q07820 whole entry K194A/K197A/R201A, looked up, the tested form may be a part): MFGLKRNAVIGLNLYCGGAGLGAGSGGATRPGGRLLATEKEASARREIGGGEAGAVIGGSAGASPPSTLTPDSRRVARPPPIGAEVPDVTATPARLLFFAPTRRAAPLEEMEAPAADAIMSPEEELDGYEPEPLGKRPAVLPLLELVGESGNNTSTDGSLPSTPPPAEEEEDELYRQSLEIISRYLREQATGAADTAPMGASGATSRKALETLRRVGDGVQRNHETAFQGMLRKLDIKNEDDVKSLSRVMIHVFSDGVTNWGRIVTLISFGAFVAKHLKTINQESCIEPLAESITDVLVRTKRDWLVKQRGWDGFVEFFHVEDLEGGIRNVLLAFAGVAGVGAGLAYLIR
How it was run: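 MBP-fused MCL-1 (aa 173-329, 1 nM) was pre-incubated with compound for 10 min at 22° C, then biotinylated Noxa BH3 peptide (1 nM) was added with anti-MBP-Eu cryptate and streptavidin-XL665. Incubation was 1 h at 22° C, then overnight at 4° C, in Tris pH 7 buffer. The 665/620 nm ratio over 11 concentrations (0.1 nM-20 μM) gave IC50 by 4-parameter fit.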

[2] = system: SUDHL10; experiment: Induction of caspase-3/7 activity (Assay 4), SUDHL10; assay type: cell-based; conditions: caspase-3/7 induction, median
How it was run: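 Caspase-3/7 activity measured by Caspase-Glo 3/7 luminescence in DLBCL cells after 3 h compound treatment at 37 °C. Medium-only background subtracted. EC50 fitted with C0 fixed at 1 and top set to the reference compound's plateau/max induction.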

[3] = system: SUDHL5; experiment: Induction of cytotoxicity (Assay 6), SUDHL5; conditions: read-out: Cytotox SUDHL5 [M] (median) IC50, CellTiter-Glo, 5 hours, SUDHL5
[4] = system: SUDHL10; experiment: Induction of cytotoxicity (Assay 6), SUDHL10; conditions: read-out: Cytotox SUDHL10 [M] (median) IC50, CellTiter-Glo, 5 hours, SUDHL10
Experimental: Assay 6 Induction of Cytotoxicity Upon Treatment of Cells with Selected Compounds
Therefore, cytotoxicity assays were run in parallel in SUDHL5 and SUDHL10 cells.
The different cell lines were plated in culture medium (RPMI 1640 [GIBCO #22400-089] supplemented with 10% Fetal Bovine Serum) at a density of 3,300 cells in 30 μl/well in a sterile, solid black, flat bottom, polystyrene, TC-treated 384-well microplate (Corning #3571) using Multidrop Combi Reagent Dispenser. As a control, medium without cells was also added to the plate. Cells were incubated in a humidified incubator at 37° C. overnight. On the next day, the cells were treated with compounds (stock solution, 10 mM in DMSO) using the HP D300 Digital Dispenser in a concentration range of 3.3×10e-5 M (33 μM) to 5×10e-9 M (5 nM) in a single-dot curve with at least 16 dilutions and a DMSO concentration of 0.33%. Rim wells were excluded. The cells were incubated for 5 hours in a humidified incubator at 37° C. After this incubation, 30 μl of CellTiter-Glo® Luminescent Cell Viability reagent (Promega, G7573) was added to each well using the Multidrop Combi Reagent Dispenser, followed by 15 minutes incubation on a shaker at room temperature. Finally, luminescence was read at 0.1 ms, with a gain of 3000 using the PHERAstar FS microplate reader (BMG Labtech).

Row | Structure (SMILES) | IC50 [1] [nM] | EC50 ([2]; Homo sapiens, SU-DHL10, 3 h) [nM] | EC50 ([2]; 3 hours) [nM] | IC50 ([3]; Homo sapiens, SU-DHL-5, 5 h) [M] | IC50 ([4]; Homo sapiens, SU-DHL10, 5 h) [M] | IC50 [3] [M] | IC50 [4] [M]
1 | CCc1c2c(nn1C)CN(C)S(=O)(=O)CCCn1c(C(=O)O)c(CCCOc3cccc4c3CCCC4)c3ccc(Cl)c-2c31 [Example 23, (rac)-13-Chloro-12-ethyl-8,11-dimethyl-1-(3-((5,6,7,8-tetrahydronaphthalen-1-yl)oxy)propyl)-4,5,6,8,9,11-hexahydropyrazolo[3′,4′:4,5][1,2,8]thiadiazacycloundecino[6,7,8-hi]indole-2-carboxylic acid 7,7-dioxide] | 3.3 | 2300 | – | 1.7e-06 | 2.5e-06 | – | –
2 | Cc1cc(OCCCc2c(C(=O)O)n3c4c(c(F)ccc24)-c2c(nn(C)c2C)CN(C)S(=O)(=O)CCC3)cc(C)c1Cl (racemic) [Example 28, (rac)-1-(3-(4-Chloro-3,5-dimethylphenoxy)propyl)-13-fluoro-8,11,12-trimethyl-5,6,9,11-tetrahydro-4H,8H-pyrazolo[3′,4′:4,5][1]thia[2,8]diazacycloundecino[6,7,8-hi]indole-2-carboxylic acid 7,7-dioxide] | 4 | 11000 | – | 3.1e-06 | 8e-06 | – | –
3 | CCc1c2c(nn1C)CN(C)S(=O)(=O)CCCn1c(C(=O)O)c(CCCOc3cc(C)c(Cl)c(C)c3)c3ccc(Cl)c-2c31 [Example 22, (rac)-13-Chloro-1-(3-(4-chloro-3,5-dimethylphenoxy)propyl)-12-ethyl-8,11-dimethyl-4,5,6,8,9,11-hexahydropyrazolo[3′,4′:4,5][1,2,8]thiadiazacycloundecino[6,7,8-hi]indole-2-carboxylic acid 7,7-dioxide] | 3.1 | 3300 | – | 2.1e-06 | 3.6e-06 | – | –
4 | CCc1c2c(nn1C)CN(C)S(=O)(=O)CCCn1c(C(=O)O)c(CCCOc3cccc4ccccc34)c3ccc(F)c-2c31 (racemic) [Example 31, (rac)-12-Ethyl-13-fluoro-8,11-dimethyl-1-(3-(naphthalen-1-yloxy)propyl)-5,6,9,11-tetrahydro-4H,8H-pyrazolo[3′,4′:4,5][1]thia[2,8]diazacycloundecino[6,7,8-hi]indole-2-carboxylic acid 7,7-dioxide] | 3.6 | 1900 | – | 9.3e-07 | 1.9e-06 | – | –

The next compounds have a lower IC50 [1] than those just listed; values first:

Row | IC50 [1] [nM] | EC50 ([2]; Homo sapiens, SU-DHL10, 3 h) [nM] | EC50 ([2]; 3 hours) [nM] | Structure (SMILES) | IC50 ([3]; Homo sapiens, SU-DHL-5, 5 h) [M] | IC50 ([4]; Homo sapiens, SU-DHL10, 5 h) [M] | IC50 [3] [M] | IC50 [4] [M]
5 | 0.52 | – | 590 | Cc1c2c(nn1C)CN(C)S(=O)(=O)CCCn1c(C(=O)O)c(CCCOc3cccc4ccccc34)c3ccc(Cl)c-2c31 (single isomer, unassigned; enantiomer 1) [Example 5, 4-Chloro-2,3,14-trimethyl-7-{3-[(naphthalen-1-yl)oxy]propyl}-13,13-dioxo-10,11,12,13,14,15-hexahydro-2H-13λ^6-pyrazolo[3′,4′:4,5][1,2,8]thiadiazacycloundecino[6,7,8-hi]indole-8-carboxylic acid-N-ethylethanamine salt (Enantiomer 1)] | – | – | 4.9e-07 | 7.1e-07
6 | 0.64 | – | 520 | CCc1c2c(nn1C)CN(C1CC1)S(=O)(=O)CCCn1c(C(=O)O)c(CCCOc3cccc4cc(F)ccc34)c3ccc(Cl)c-2c31 (single isomer, unassigned; enantiomer 1) [Example 54, (−)-4-chloro-14-cyclopropyl-3-ethyl-7-{3-[(6-fluoronaphthalen-1-yl)oxy]propyl}-2-methyl-13,13-dioxo-10,11,12,13,14,15-hexahydro-2H-13lambda^6-pyrazolo[3′,4′:4,5][1,2,8]thiadiazacycloundecino[6,7,8-hi]indole-8-carboxylic acid N-ethylethanamine Salt (Enantiomer 1)] | – | – | 3.6e-07 | 6.5e-07
7 | 0.48 | – | 110 | CCc1c2c(nn1C)CN(CC)S(=O)(=O)CCCn1c(C(=O)O)c(CCCOc3cccc4cc(F)ccc34)c3ccc(Cl)c-2c31 (single isomer, unassigned; enantiomer 1) [Example 57, (+)-4-chloro-3,14-diethyl-7-{3-[(6-fluoronaphthalen-1-yl)oxy]propyl}-2-methyl-13,13-dioxo-10,11,12,13,14,15-hexahydro-2H-13lambda^6-pyrazolo[3′,4′:4,5][1,2,8]thiadiazacycloundecino[6,7,8-hi]indole-8-carboxylic acid N-ethylethanamine Salt (Enantiomer 1)] | – | – | 1.1e-07 | 1.4e-07
8 | 0.6 | – | 200 | CCc1c2c(nn1C)CN(C)S(=O)(=O)CCCn1c(C(=O)O)c(CCCOc3cccc4cc(F)ccc34)c3ccc(Cl)c-2c31 (single isomer, unassigned; enantiomer 1) [Example 36, (+)-4-chloro-3-ethyl-7-{3-[(6-fluoronaphthalen-1-yl)oxy]propyl}-2,14-dimethyl-13,13-dioxo-10,11,12,13,14,15-hexahydro-2H-13lambda^6-pyrazolo[3′,4′:4,5][1,2,8]thiadiazacycloundecino-[6,7,8-hi]indole-8-carboxylic acid (Enantiomer 1)] | – | – | 1.6e-07 | 2.4e-07
